For this experiment, the target named is T1, human TLR8 (Homo sapiens, UniProt Q9NR97).
T1 construct: host or cells: HEK293 (HEK-Blue)
T1 sequence (Q9NR97 27-1041): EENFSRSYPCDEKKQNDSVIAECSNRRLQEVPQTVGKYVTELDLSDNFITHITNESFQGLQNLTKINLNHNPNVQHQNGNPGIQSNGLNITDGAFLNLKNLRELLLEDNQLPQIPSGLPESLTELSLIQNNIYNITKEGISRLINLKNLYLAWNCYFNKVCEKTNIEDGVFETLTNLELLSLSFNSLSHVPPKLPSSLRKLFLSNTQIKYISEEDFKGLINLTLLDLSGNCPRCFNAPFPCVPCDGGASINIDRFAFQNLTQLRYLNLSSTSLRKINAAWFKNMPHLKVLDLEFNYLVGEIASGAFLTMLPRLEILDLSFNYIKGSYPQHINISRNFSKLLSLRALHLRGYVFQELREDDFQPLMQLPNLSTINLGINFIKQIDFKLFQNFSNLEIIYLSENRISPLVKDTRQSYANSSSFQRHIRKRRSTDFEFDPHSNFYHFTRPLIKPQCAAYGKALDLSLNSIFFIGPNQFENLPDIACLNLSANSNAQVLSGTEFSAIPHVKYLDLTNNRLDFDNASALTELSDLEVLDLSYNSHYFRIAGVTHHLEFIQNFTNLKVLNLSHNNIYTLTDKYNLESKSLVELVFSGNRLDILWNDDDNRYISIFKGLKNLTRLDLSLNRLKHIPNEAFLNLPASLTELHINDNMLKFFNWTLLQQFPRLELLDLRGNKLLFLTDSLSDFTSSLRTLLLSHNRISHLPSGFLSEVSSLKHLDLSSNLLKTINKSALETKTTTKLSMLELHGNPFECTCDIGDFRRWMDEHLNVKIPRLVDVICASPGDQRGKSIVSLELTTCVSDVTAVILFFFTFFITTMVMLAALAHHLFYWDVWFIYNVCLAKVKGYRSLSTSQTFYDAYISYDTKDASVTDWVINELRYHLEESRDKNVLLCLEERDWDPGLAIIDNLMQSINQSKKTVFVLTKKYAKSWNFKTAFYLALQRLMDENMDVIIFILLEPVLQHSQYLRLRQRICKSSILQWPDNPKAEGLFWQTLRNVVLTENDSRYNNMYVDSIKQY
The experiment in a line: HEK293-Blue-hTLR-8 cells assay (SEAP reporter, R848 stimulation). It counts as cell-based. As to conditions: HEK293-Blue-hTLR8 cells, R848, 20 hrs; read-out: HEK/hTLR8 IC50. In outline: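 HEK293-Blue-hTLR8 cells (NF-κB/AP-1-driven SEAP) in DMEM/10% FBS were treated with serially diluted compound (1% DMSO final) plus R848 for 20 hrs at 37 °C. Supernatant SEAP was measured with QUANTI-Blue after 2 hrs at 37 °C, absorbance 620-655 nm; antagonism seen as reduced reporter.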

On to `C[C@@H]1CN(c2ccc(C#N)c3ncccc23)C[C@H](CN2CC3(C2)CN(c2ccc4c(n2)CNCC4)CCO3)O1` [Example 45, 5-[(2R,6S)-2-methyl-6-[[8-(5,6,7,8-tetrahydro-1,7-naphthyridin-2-yl)-5-oxa-2,8-diazaspiro[3.5]nonan-2-yl]methyl]morpholin-4-yl]quinoline-8-carbonitrile], for which the IC50 amounted to 10 nM. For the compound `C[C@@H]1CN(c2ccc(C#N)c3ncccc23)C[C@H](CN2CC3(C2)CN(c2cnc4c(c2)CCNC4)CCO3)O1` [Example 46, 5-[(2R,6S)-2-methyl-6-[[8-(5,6,7,8-tetrahydro-1,7-naphthyridin-3-yl)-5-oxa-2,8-diazaspiro[3.5]nonan-2-yl]methyl]morpholin-4-yl]quinoline-8-carbonitrile], the IC50 stood at 9 nM. On to `C[C@@H]1CN(c2ccc(C#N)c3ncccc23)C[C@H](CN2CC3(C2)CN(c2cnc4c(c2)CNCC4)CCO3)O1` [Example 47, 5-[(2R,6S)-2-methyl-6-[[8-(5,6,7,8-tetrahydro-1,6-naphthyridin-3-yl)-5-oxa-2,8-diazaspiro[3.5]nonan-2-yl]methyl]morpholin-4-yl]quinoline-8-carbonitrile], for which the IC50 came out at 20 nM. As to `C[C@@H]1CN(c2ccc(C#N)c3ncccc23)C[C@H](CN2CC3(C2)CN(c2cc4c(cn2)CCNC4)CCO3)O1` [Example 48, 5-[(2R,6S)-2-methyl-6-[[8-(5,6,7,8-tetrahydro-2,6-naphthyridin-3-yl)-5-oxa-2,8-diazaspiro[3.5]nonan-2-yl]methyl]morpholin-4-yl]quinoline-8-carbonitrile], the IC50 was determined as 8 nM. As to `C[C@@H]1CN(c2ccc(C#N)c3ncccc23)C[C@H](CN2CC3(C2)CN(c2ccc4c(n2)CCNC4)CCO3)O1` [Example 49, 5-[(2R,6S)-2-methyl-6-[[8-(5,6,7,8-tetrahydro-1,6-naphthyridin-2-yl)-5-oxa-2,8-diazaspiro[3.5]nonan-2-yl]methyl]morpholin-4-yl]quinoline-8-carbonitrile], the IC50 was less than 3 nM. On to `C[C@@H]1CN(c2ccc(C#N)c3ncccc23)C[C@H](CN2CC3(C2)CN(c2cnc4c(n2)CCNC4)CCO3)O1` [Example 50, 5-[(2R,6S)-2-methyl-6-[[8-(5,6,7,8-tetrahydropyrido[3,4-b]pyrazin-2-yl)-5-oxa-2,8-diazaspiro [3.5]nonan-2-yl]methyl]morpholin-4-yl] quinoline-8-carbonitrile], for which the IC50 is less than 3 nM. Consider `C[C@@H]1CN(c2ccc(C#N)c3ncccc23)C[C@H](CN2CC3(C2)CN(c2ncc4c(n2)CCNC4)CCO3)O1` [Example 51, 5-[(2R,6S)-2-methyl-6-[[8-(5,6,7,8-tetrahydropyrido[4,3-d]pyrimidin-2-yl)-5-oxa-2,8-diazaspiro[3.5]nonan-2-yl]methyl]morpholin-4-yl]quinoline-8-carbonitrile], for which the IC50 is 5 nM. As for `C[C@@H]1CN(c2ccc(C#N)c3ncccc23)C[C@H](CN2C[C@@H]3[C@@H](C2)OCCN3c2cnc3c(c2)CCNC3)O1` [Example 52, 5-[(2S,6R)-2-[[(4aR,7aR)-4-(5,6,7,8-tetrahydro-1,7-naphthyridin-3-yl)-2,3,4a,5,7,7a-hexahydropyrrolo[3,4-b][1,4]oxazin-6-yl]methyl]-6-methylmorpholin-4-yl]quinoline-8-carbonitrile], the IC50 worked out at 26 nM.

In the case of `C[C@@H]1CN(c2ccc(C#N)c3ncccc23)C[C@H](CN2CCN(c3cnc4c(c3)CNCC4)C(C)(C)C2)O1` [Example 56, 5-[(2S,6R)-2-[[3,3-dimethyl-4-(5,6,7,8-tetrahydro-1,6-naphthyridin-3-yl)piperazin-1-yl]methyl]-6-methyl-morpholin-4-yl]quinoline-8-carbonitrile], the IC50 turned out to be 12 nM. With `C[C@@H]1CN(c2ccc(C#N)c3ncccc23)C[C@H](CN2CCC(Nc3ncc4c(n3)CCNC4)C2)O1` (stereo partly drawn) [Example 57, 5-[(2R,6S)-2-methyl-6-[[3-(5,6,7,8-tetrahydropyrido [4,3-d]pyrimidin-2-ylamino)pyrrolidin-1-yl]methyl]morpholin-4-yl] quinoline-8-carbonitrile], the IC50 was 37 nM. For `COC1CNCc2ccc(N3CCN(C[C@H]4CN(c5ccc(C#N)c6ncccc56)C[C@@H](C)O4)CC3)cc21` (stereo partly drawn) [Example 58, 5-[(2S,6R)-2-[[4-(4-methoxy-1,2,3,4-tetrahydroisoquinolin-6-yl)piperazin-1-yl]methyl]-6-methyl-morpholin-4-yl]quinoline-8-carbonitrile] the value was 15 nM. For `C[C@@H]1CN(c2ccc(C#N)c3ncccc23)C[C@H](CN2CCN(c3ccc4c(c3)C(O)CN(C)C4)CC2)O1` (stereo partly drawn) [Example 59, 5-[(2S,6R)-2-[[4-(4-hydroxy-2-methyl-3,4-dihydro-1H-isoquinolin-6-yl)piperazin-1-yl]methyl]-6-methyl-morpholin-4-yl]quinoline-8-carbonitrile] the value was 11 nM; for `Cc1nc2c(nc1N1CCN(C[C@H]3CN(c4ccc(C#N)c5ncccc45)C[C@@H](C)O3)CC1)CCNC2` [Example 60, 5-[(2R,6S)-2-methyl-6-[[4-(3-methyl-5,6,7,8-tetrahydropyrido[3,4-b]pyrazin-2-yl)piperazin-1-yl]methyl]morpholin-4-yl]quinoline-8-carbonitrile], 14 nM.

On to `C[C@@H]1CN(c2ccc(C#N)c3ncccc23)C[C@H](CN2CCN(c3ncnc4c3CNCC4)CC2)O1` [Example 61, 5-[(2R,6S)-2-methyl-6-[[4-(5,6,7,8-tetrahydropyrido[4,3-d]pyrimidin-4-yl)piperazin-1-yl]methyl]morpholin-4-yl]quinoline-8-carbonitrile], for which the IC50 turned out to be 10 nM.

`C[C@@H]1CN(c2ccc(C#N)c3ncccc23)C[C@H](CN2CCN(c3nccc4c3CCNC4)CC2)O1` [Example 62, 5-[(2R,6S)-2-methyl-6-[[4-(5,6,7,8-tetrahydro-2,6-naphthyridin-1-yl)piperazin-1-yl]methyl]morpholin-4-yl]quinoline-8-carbonitrile]: the IC50 was found to be 14 nM. For the compound `C[C@@H]1CN(c2ccc(C#N)c3ncccc23)C[C@H](CN2CCN(c3ccc4c(n3)CNCC4)CC2)O1` [Example 69, 5-[(2R,6S)-2-methyl-6-[[4-(5,6,7,8-tetrahydro-1,7-naphthyridin-2-yl)piperazin-1-yl]methyl]morpholin-4-yl]quinoline-8-carbonitrile], the IC50 turned out to be 5 nM. Consider `C[C@@H]1CN(c2ccc(C#N)c3nccnc23)C[C@H](CN2CCN(c3cc4c(cn3)CCNC4)CC2)O1` [Example 80, 8-[(2R,6S)-2-methyl-6-[[4-(5,6,7,8-tetrahydro-2,6-naphthyridin-3-yl)piperazin-1-yl]methyl]morpholin-4-yl]quinoxaline-5-carbonitrile], for which the IC50 turned out to be 7 nM. The figure for `COc1ccc(N2CCN(C[C@H]3CN(c4ccc(C#N)c5ncccc45)C[C@@H](C)O3)CC2)cc1` [Example R1, 5-[(2S,6R)-2-[[4-(4-methoxyphenyl)piperazin-1-yl]methyl]-6-methyl-morpholin-4-yl]quinoline-8-carbonitrile, reference compound] is 142 nM. For `C[C@@H]1CN(c2ccc(C#N)c3ncccc23)C[C@H](CN2CCN(c3ccc(Cl)cc3)CC2)O1` [Example R2, 5-[(2S,6R)-2-[[4-(4-chlorophenyl)piperazin-1-yl]methyl]-6-methyl-morpholin-4-yl]quinoline-8-carbonitrile, reference compound] the value was 342 nM.

Values taken from patent EP3807270B1, “NOVEL HETEROARYL HETEROCYCLYL COMPOUNDS FOR THE TREATMENT OF AUTOIMMUNE DISEASE” (F. Hoffmann-La Roche AG, priority 2018, dated 2019).
